The values that follow come from patent publication US20090325931A1, “USE OF CDK INHIBITORS FOR THE TREATMENT OF GRANULOCYTE MEDIATED DISORDERS” (University Court of the University of Edinburgh, priority 2006, published 2009).

Data set [1] has as its system human neutrophils. The data set is described as follows: Human neutrophil apoptosis (annexin-V-FITC binding, confirmed by morphology). The format is cell-based. To be noted: for rate of apoptosis, time course study: after 8 h, NG75 10 μM, HD 10 μM; for rate of constitutive apoptosis: increasing concentrations, over 20 h; for rates of apoptosis assessed by annexin V binding: stereoisomers at 20 μM, after 6 h, mean±s.e.m., n=4 donors, control 12.4±0.4%.

The subject of data set [2] is carrageenan-induced pleural inflammation. As to the kind of experiment: Carrageenan-induced pleurisy. In kind it is in vivo, C57BL/6J mice.
The subject of data set [3] is human neutrophils. As to the kind of experiment: Reversal of dbcAMP, GMCSF and LPS mediated survival of neutrophils. In kind it is cell-based. To be noted: 30 min pre-incubation with survival factor, then 20 h. The protocol: At least 500 cells were counted per slide and the percentage apoptosis calculated. Apoptosis and loss of membrane integrity was also assessed by flow cytometry using human recombinant annexin-V-FITC (Roche, UK) to measure phosphatidylserine (PS) exposure, in combination with propidium iodide (Sigma). Stock annexin-V-FITC was diluted at 1:500 in annexin-V binding buffer (500 ml Hanks Balanced Salt Solution containing […]) and was added at a volume of 280 μl to 5×10^4 cells, and then incubated on ice for 10 min. 1 μl of PI (stock 1 mg/ml) was added to the samples shortly before analysis using the EPICS XL2 flow cytometer (Beckman Coulter, High Wycombe, UK). Where apoptosis data are presented as annexin-V binding, apoptosis was also confirmed by morphological assessment.
Since CDK inhibitors were able to accelerate apoptosis, the inventors investigated whether these compounds could also reverse the effects of agents known to delay apoptosis through different signaling pathways (Riley, N. A. et al. Anti-inflammatory & Anti-Allergy Agents in Medicinal Chemistry 5, 3-12 (2006)). […] Lipopolysaccharide (LPS) binds to Toll-like receptor (TLR)4, that interacts with CD14 eventually leading to mitogen-activation kinases (MAPK), PI3K and/or NF-κB signaling to inhibit apoptosis. […] Apoptosis was assessed by annexin-V-FITC, and checked by morphology.

Data set [4] has as its system Mcl-1. As to the kind of experiment: Mcl-1 protein expression in neutrophils (western blot). In kind it is cell-based, human.
In data set [5] the test system is serum induced arthritis. The data set is described as follows: Passively-induced (K/BxN serum) arthritis. The format is in vivo, C57BL/6J mice. To be noted: 10 mg/kg i.p. on days 3-19 every second day. The protocol: Sera (100 μl) extracted from 60 day old arthritic K/B×N mice was injected intra-peritoneally into 6-8 week old female C57BL/6J mice (B&K, Hull, UK). Arthritis was scored by clinical examination. Briefly, a score of 1 was given for erythema alone or swelling of 1 digit. A score of 2 resulted from erythema plus swelling of the tarsal joints or swelling of the hock or wrist joint alone. A maximum score of 3 was achieved when swelling was present in both tarsal and hock joints, or both wrist and digits, or more than 2 digits and the tarsal joints. The score for each limb was added giving a maximum score of 12 and the mean score reflects the total score divided by the number of recipient mice per group.
Mice (n=10 in each group) were injected twice (days 0 and 3) with K/B×N serum derived from arthritic (day 60) K/B×N transgenic mice. Clinical scores were assessed on the days indicated.

Data set [6] concerns caspase-3. As to the kind of experiment: Caspase-3 cleavage in neutrophils (western blot). The following applies: 20 μM, 4 h.
Data set [7] relates to tumor. The following applies: cited from earlier work.
Setting [8] is: zVAD-fmk 1 μg/Kg i.p. at 4 h intervals.
Where [9] appears, read: zVAD-fmk 1 μg/Kg i.p. at 4 h intervals, R-roscovitine 10 mg/Kg.
The mark [10] stands for this setting: 10 or 100 mg/Kg i.p., 36 h post-carrageenan.

For the compound `COC(=O)C[C@H](NC(=O)[C@H](C)NC(=O)[C@@H](NC(=O)OCc1ccccc1)C(C)C)C(=O)CF` (racemic) [zVAD-fmk, z-Val-Ala-DL-Asp-fluoromethylketone], in data set [1] (zVAD-fmk 100 μM, R-roscovitine 20 μM, 6 h), the “effect on R-roscovitine induced apoptosis” value is on record as “prevented R-roscovitine induced apoptosis”. In addition, in data set [2] (setting [8]), the “edema formation compared with saline or vehicle controls” value was “increasing” and the “total inflammatory cell number compared with saline or vehicle controls” value is “increasing”. In data set [2] (setting [9]), the “effect on R-roscovitine increase in inflammatory cell apoptosis and macrophages containing apoptotic bodies” value is “inhibited dramatically”; the “effect on R-roscovitine-induced decrease in inflammatory cells and edema formation” value is “prevented”.
Regarding `COc1ccc(CNc2nc(N[C@@H](CO)C(C)C)nc3c2ncn3C(C)C)cc1` [NG75, 2-(1R-isopropyl-2-hydroxyethylamino)-6-(4-methoxy-benzylamino)-9-isopropylpurine], the “annexin-V/PI positive cell populations (secondary necrosis)” value in data set [1] (20 h treatment) was “increased number”. The “rate of apoptosis, time course study” value in data set [1] (R-roscovitine 20 μM) is “increased the rate of apoptosis dramatically”. For the same compound, the “annexin V positive cells” value in data set [1] (after 8 h of treatment) is recorded as “marked increase”. Besides, the “rate of constitutive apoptosis” value in data set [1] was “significantly increased”.
In the case of `CC[C@H](CO)Nc1nc(NCc2ccccc2)c2ncn(C(C)C)c2n1` [R-roscovitine, (R)-2-[{9-(1-methylethyl)-6-[(phenylmethyl)amino]-9H-purin-2-yl]amino}-1-butanol], in data set [1] (R-roscovitine 20 μM), the “rate of apoptosis, time course study” value was “increased the rate of apoptosis dramatically”. Moreover, in data set [1], the “rate of constitutive apoptosis” value was “significantly increased” and the “rates of apoptosis assessed by annexin V binding” value was 75.9±3.5%. In data set [3], the “effect on survival signals (dbcAMP, GMCSF, LPS delayed apoptosis)” value was “clearly is dominant over survival factor mediated effects”. For the same compound, the “effect on GM-CSF mediated up-regulation of Mcl-1” value in data set [4] (R-roscovitine 20 μM plus GM-CSF 50 U/ml, 4 h) was “inhibits GM-CSF mediated up-regulation of Mcl-1”. Moreover, the “arthritis as assessed by clinical scores” value in data set [5] is listed as “dramatically resolved quicker”. Also, the caspase-3 cleavage entry in data set [6] was “results in caspase-3 cleavage”. The “inhibition of total inflammatory cell number compared with vehicle control” value in data set [2] (10 mg/kg i.p. 24 h after carrageenan, 36 h post-carrageenan) is “greater than 50%”. In addition, the “number of monocytes/macrophages and neutrophils” value in data set [2] (10 mg/kg i.p., 36 h post-carrageenan) was “reduction”. Moreover, in data set [2] (100 mg/Kg i.p., 36 h post-carrageenan), the “lung inflammation (inflammatory infiltrate in lung sections)” value is recorded as “dramatically reduced”. The “pleural cavity total cell numbers over seven days” value in data set [2] (100 mg/kg i.p. at 24 h, all time points examined) is reported as “marked resolution of inflammation”. The “amount of inflammatory cells in pleural cavity” value in data set [2] (100 mg/kg i.p., 36 h post-carrageenan) is reported as “near baseline levels”. Moreover, in data set [2] (setting [10]), the “IFN-γ in the inflammatory exudate” value is “diminished”, the “IL-6 in the inflammatory exudate” value is “diminished” and the “MCP-1 in the inflammatory exudate” value is reported as “diminished”. Moreover, in data set [2] (36 h post-carrageenan), the “edema formation (total exudate volume), decrease compared with saline control” value is “three-fold”; the “inflammatory cell apoptosis and macrophages containing apoptotic bodies in the pleural cavity” value is reported as “increase”. Also, in data set [7] (even with high doses of 2 g/kg), the tolerability entry is reported as “well tolerated”. Further, the tumor size result in data set [7] (systemic administration) is recorded as “specific reduction in tumor size”.
Take `CC[C@@H](CO)Nc1nc(NCc2ccccc2)c2ncn(C(C)C)c2n1` [S-roscovitine]: the “rates of apoptosis assessed by annexin V binding” value in data set [1] is 75.6±3.3%.
For the compound “GM-CSF: pro-survival factor (R & D Systems)”, the “effect on fall of Mcl-1 levels in culture” value in data set [4] (GM-CSF 50 U/ml) is on record as “prevented”.
